The values below come from EP0567324A1, “Medicaments for treating gar-transformylase-dependent tumors” (ELI LILLY AND COMPANY, priority 1992, dated 1993).

The subject of series [1] is aggressive soft tissue sarcoma characterized as either a malignant Schwannoma or a tendosynovial sarcoma. The settings on record: human, in vivo.
For series [2], the system named is adenocarcinoma originating in the ethmoid sinus. To be noted: human, in vivo.

On to `Nc1nc2c(c(=O)[nH]1)C[C@@H](CCc1ccc(C(=O)N[C@@H](CCC(=O)O)C(=O)O)cc1)CN2` [Lometrexol, 5,10-dideaza-5,6,7,8-tet-rahydrofolic acid], for which, in series [1], the “clinical response in the irradiated field” value is given as “dramatic”, the “lometrexol retention in the patients body” value is “prolonged”, the “mucositis due to the drug” value is reported as “mild mucositis” and the “thrombocytopenia to” value is listed as 55,000. In addition, in series [1], the “tumor course after lometrexol, before radiation” value is listed as “continued to rapidly progress”. For the same molecule, in series [2], the “change of massively enlarged liver (hepatic metastases) after treatment” value was “marked shrinkage”; the “duration of prolonged thrombocytopenia and anemia” value was “over 7 weeks”; the “persistent anemia at a Hgb of” value worked out at 5.4.
